Tested on: common cutworms (Spodoptera litura)
Assay: Test Example 1: spray on cabbage seedling, mortality of common cutworm larvae
Type: in vivo
Conditions: 500 ppm diluted solution sprayed on cabbage seedling 20 mL/seedling; five second instar larvae; 25° C., 5 days
Protocol: The compound A is made to a formulation according to a similar method to that described in the Formulation Example 5, and thereto is added water containing 0.03 v/v % of shindain (registered trademark) to prepare a diluted solution containing 500 ppm of the test compound.
The diluted solution was sprayed into the cabbage (Brassicae oleracea) seedling (on the developmental stage of the second to third true leaf) that is planted in a container in a ratio of 20 mL/seedling.
Thereafter, the stem and leaf thereof was cut out and then was installed into the container that was covered with the filter paper. Five common cutworms (Spodoptera litura) at the second instar larval stages were released into the container, and the container was allowed to stand at 25° C. for 5 days. […] Mortality (%)={1−Number of the surviving insects/5}×100

`CCOC(=O)COc1nc(C)cc(C)c1Oc1cc(-n2c(=O)cc(C(F)(F)F)n(C)c2=O)c(F)cc1Cl` [Compound A] gave a mortality of insects of 100%.
Work on `CCOC(=O)COc1ncccc1Oc1cc(-n2c(=O)cc(C(F)(F)F)n(C)c2=O)c(F)cc1Cl` [Compound B] yielded a mortality of insects of 0%.
